Laboratory results: US5041441A, “Method of chemotherapy using 1-phenyl-2-decanoylamino-3-morpholino-1-propanol” (The Regents of the University of Michigan, priority 1988, dated 1991)

Legend:
EATC [1] = test: Rechallenge of surviving treated mice with EATC; type: in vivo
Text: Four mice who had survived 63 days post-inoculation were challenged with another 2×10^6 EATC. […] Normal mice of this age, like the younger ones, are readily attacked by EATC. We conclude that the mice have, in effect, been "live-cell vaccinated" with EATC plus PDMP.

[2] = biological target: T1, glucosyltransferase (microsomes from normal liver) (Mus musculus, UniProt O88693); test: Glucosyltransferase assay, microsomes from normal liver; type: biochemical
T1 construct: The microsomes from normal liver (72 μg protein) required 5 μM D-threo-PDMP; from tissue; host or cells: normal liver microsomes, ICR Swiss mice
T1 sequence (O88693 1-394): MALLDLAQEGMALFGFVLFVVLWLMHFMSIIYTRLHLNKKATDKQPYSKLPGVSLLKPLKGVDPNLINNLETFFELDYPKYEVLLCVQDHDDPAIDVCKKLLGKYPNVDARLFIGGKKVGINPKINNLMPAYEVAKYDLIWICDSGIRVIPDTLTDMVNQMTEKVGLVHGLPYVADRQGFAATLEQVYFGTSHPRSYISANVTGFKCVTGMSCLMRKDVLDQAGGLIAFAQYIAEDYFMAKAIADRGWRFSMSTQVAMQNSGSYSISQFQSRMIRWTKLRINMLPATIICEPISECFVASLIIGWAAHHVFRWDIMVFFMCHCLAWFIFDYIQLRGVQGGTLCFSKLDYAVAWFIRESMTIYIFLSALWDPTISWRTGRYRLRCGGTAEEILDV
Method: (§1) Evidence that D-threo-PDMP acts to inhibit GlcCer biosynthesis was provided as follows from assay of glucosyltransferase. Microsomes as source of enzyme were prepared by highspeed centrifugation and stored at -70° C. before use. The incubations were at 37° C. for 30 minutes with microsomes, ATP, liposomal octanoyl sphingosine, UDP-[^3 H]glu, Mg^2+, and dithioerythritol. Microsomes from EATC (0.50 mg protein) required 20 μM PDMP to reduce the glucosyltransferase activity in half. The microsomes from normal liver (72 μg protein) required 5 μM D-threo-PDMP. While the EATC enzyme seems to be less sensitive to the inhibitor, the intraperitoneal concentration of inhibitor is initially very high.
Our tentative conclusion is that these cells obtain much of their GlcCer from the peritoneum. Thus, the effectiveness of the drug can tentatively be ascribed to a blockage of GlcCer synthesis by both the host and tumor cells.

[3] = biological target: T2, glucosyltransferase (EATC enzyme) (Mus musculus, UniProt O88693); test: Glucosyltransferase assay, microsomes from EATC; type: biochemical
T2 construct: Microsomes from EATC (0.50 mg protein) required 20 μM PDMP to reduce the glucosyltransferase activity in half; endogenous in cells; host or cells: Ehrlich ascites tumor cells (EATC), microsomes
T2 sequence (O88693 1-394): T1 sequence (O88693 1-394)
Method: as §1

Ehrlich ascites cells = test: Growth of Ehrlich ascites cells in vivo (volume of packed cells); details: treatment begun 3 days after EATC inoculation, 5 injections, killed 1 day later; 100 mg/kg
Method: A suspension of GlcCer was injected into one group of 10 mice inoculated 1 day earlier with EATC as before. Injectable suspensions of GlcCer and galactosylceramide (GalCer) were prepared by mechanical grinding in saline (10 mg/ml) and injected at a dosage of 100 mg/kg. In one experiment, the mice were killed 1 day after the last of eight daily injections and the ascites cells were flushed out of the abdomen with buffered saline and washed.
Treatments were begun 3 days after EATC inoculation. Only 5 injections were given and the mice were killed 1 day later.

EATC [4] = test: D-threo-PDMP with detergents (Myrj 52 or Pluronic F68) in mice; type: in vivo; details: for Number of apparently cured mice at 60 days: 8 mice
Method: (§2) Male mice of the ICR (Swiss Hsd) strain from Harlan--Sprague Dawley (Indianapolis, Ind.) were injected intraperitoneal with saline containing 2×10^6 Ehrlich ascites tumor cells (EATC) on day 0. Each cage contained 4 or 5 mice which had been weight matched by a computer program for similar means (about 25 g) and similar standard deviations. Treatment began 24 hours later with intraperitoneal injections of saline or inhibitor, either as the acetate salt or as the hydrochloride salt. The inhibitor was dissolved in 40° C. saline and injected at 10 μl/g body weight. In the case of drugs that were difficult to dissolve, e.g. the hydrochlorides, a non-ionic, low toxicity detergent was included to emulsify the drug, making it suitable for injection. Two cages of mice were assigned to each control or experimental group and fed standard lab chow. In almost all cases, the mice were injected daily for a total of 10 doses.
Four groups of mice (8 per group) were injected once a day for 10 d with 120 mg/kg of D-threo-PDMP and 60 or 180 mg/kg of Myrj 52 or Pluronic F68. No deaths occurred in these mice by 10 days and, at 60 days, the number of apparently cured mice was 2 and 3 for the two Myrj groups and 1 and 3 for the two Pluronic groups.

[5] = test system: Ehrlich ascites tumor cells (EATC); test: Antitumor activity in mice inoculated i.p. with Ehrlich ascites tumor cells; type: in vivo; details: for Median T/C ratio / Number of cured mice at 60 days / Number of cured mice at 90 days / Surviving at 60 days (cured mice and mice bearing a solid tumor) / Surviving at 90 days (cured mice and mice bearing a solid tumor): acetate salt i.p.; for Surviving at 10 days / Body weight change (mean, end of 10 days): mouse, in vivo, ip
Method: as §2, with “Each cage contained 4 or 5 mice which had been weight matched by a computer program for similar means (about 25 g) and similar standard deviations.” left out
The 1-tailed Student t-test for unpaired samples was used for statistical analysis.
The experimental procedure set forth above was again followed with homologs of PDMP made from fatty acids of 10 to 18 carbon atom length. The compounds were not resolved into D- and L-forms but the threo stereomers were used as the hydrochlorides. All samples were emulsified in Myrj 52 (15 mg/kg).

[6] = 2 × 250 mg/kg/day, days 1-5, 1 × 150, days 6-10

CCCCCCCCCC(=O)N[C@H](CN1CCOCC1)[C@H](O)c1ccccc1 [D-threo-PDMP, 1-Phenyl-2-Decanoylamino-3-Morpholino-1-Propanol]
Survivors developing no EATC after challenge (EATC [1]; five survivors challenged 135 and 100 days after inoculation, greater than 5 months of observation): four of them developed no EATC
Effect of reinoculation with 2×10^6 EATC (EATC [1]; four mice surviving 63 days post-inoculation, observed greater than 7 months more): no effects of the reinoculation
IC50 [2]: 5 µM
IC50 [3]: 20 µM
Volume of packed cells (Ehrlich ascites cells): 1.68 ± 0.86 ml/mouse
Volume of packed cells, % of controls (Ehrlich ascites cells): 62 % of controls
Number of apparently cured mice at 60 days (EATC [4]; 120 mg/kg for 10 d with Myrj 52, first group (60 mg/kg)): 2
Number of apparently cured mice at 60 days (EATC [4]; 120 mg/kg for 10 d with Myrj 52, second group (180 mg/kg)): 3
Number of apparently cured mice at 60 days (EATC [4]; 120 mg/kg for 10 d with Pluronic F68, first group (60 mg/kg)): 1
Number of apparently cured mice at 60 days (EATC [4]; 120 mg/kg for 10 d with Pluronic F68, second group (180 mg/kg)): 3
Deaths by 10 days (EATC [4]; 120 mg/kg once a day for 10 d with 60 or 180 mg/kg of Myrj 52 or Pluronic F68, 8 per group): No deaths
Median T/C ratio ([5]; 1 × 100 mg/kg/day, days 1-10): 191%
Number of cured mice at 60 days ([5]; 1 × 100 mg/kg/day, days 1-10): 4
Number of cured mice at 90 days ([5]; 1 × 100 mg/kg/day, days 1-10): 4
Surviving at 60 days (cured mice and mice bearing a solid tumor) ([5]; 1 × 100 mg/kg/day, days 1-10): 7
Surviving at 90 days (cured mice and mice bearing a solid tumor) ([5]; 1 × 100 mg/kg/day, days 1-10, mice with solid tumors killed before 90 days): 4
Median T/C ratio ([5]; 1 × 150 mg/kg/day, days 1-10): 319%
Number of cured mice at 60 days ([5]; 1 × 150 mg/kg/day, days 1-10): 3
Number of cured mice at 90 days ([5]; 1 × 150 mg/kg/day, days 1-10): 3
Surviving at 60 days (cured mice and mice bearing a solid tumor) ([5]; 1 × 150 mg/kg/day, days 1-10): 7
Surviving at 90 days (cured mice and mice bearing a solid tumor) ([5]; 1 × 150 mg/kg/day, days 1-10): 5
Median T/C ratio ([5]; 2 × 100 mg/kg/day, days 1-5): 238%
Number of cured mice at 60 days ([5]; 2 × 100 mg/kg/day, days 1-5): 3
Number of cured mice at 90 days ([5]; 2 × 100 mg/kg/day, days 1-5): 3
Surviving at 60 days (cured mice and mice bearing a solid tumor) ([5]; 2 × 100 mg/kg/day, days 1-5): 5
Surviving at 90 days (cured mice and mice bearing a solid tumor) ([5]; 2 × 100 mg/kg/day, days 1-5, mice with solid tumors killed before 90 days): 3
Median T/C ratio [5, 6]: 150%
Number of cured mice at 60 days [5, 6]: 3
Number of cured mice at 90 days [5, 6]: 3
Surviving at 60 days (cured mice and mice bearing a solid tumor) [5, 6]: 5
Surviving at 90 days (cured mice and mice bearing a solid tumor) [5, 6]: 5
Percentage surviving for 60 days ([5]; dose response test, 75 mg/kg): 10%
Percentage surviving for 60 days ([5]; dose response test, 100 mg/kg): 20%
Percentage surviving for 60 days ([5]; dose response test, 125 mg/kg): 50%
Time of death compared with controls ([5]; dose response test, 25 or 50 mg/kg): died at about the same time as the controls
Mice still alive and healthy more than 5 months after inoculation ([5]; dose response test, two most-heavily dosed groups): 40%
Surviving at 10 days ([5]; 100 mg/kg/day): 10/10
Body weight change (mean, end of 10 days) ([5]; 150 mg/kg/day): -0.36 g
Surviving at 10 days ([5]; 150 mg/kg/day): 10/10
Body weight change (mean, end of 10 days) ([5]; 250 mg/kg/day): -3.49 g
Surviving at 10 days ([5]; 250 mg/kg/day): 8/9
Mice completely cured ([5]; variety of regimens): About 30%
